Measured values from PMC5501099 (Malaria Journal, 2017).

How the values were obtained:
Assay in all cases: Ivermectin lethal concentration / survivorship, membrane blood feeding
Type in all cases: in vivo
Anopheles minimus = conditions: An. minimus
Procedure: (§1) Powdered formulation of ivermectin compound was obtained from Sigma-Aldrich (St. Louis, USA). […] Control blood meals consisted of previously frozen DMSO diluted in PBS to match the ratio of DMSO and PBS fed to mosquitoes in the ivermectin-containing blood meals.
(§2) After blood feeding via a membrane feeder, unfed mosquitoes were removed and discarded. Blood-fed mosquitoes were held in 3.5-l plastic containers with access to 10% sucrose and kept in an incubator at 25 ± 1 °C and 70 ± 10% relative humidity, on a 12 h light:12 h dark photoperiod. Mosquito survivorship was monitored for 7 days, every 24 h dead mosquitoes were removed and recorded, and on day 7 all remaining mosquitoes were frozen and counted as alive.
(§3) A non-linear mixed effects model with probit analysis was used to calculate LC50, LC25 and LC5 values with Statistical Analysis Software (SAS Institute Inc, Cary, NC, USA) as described previously. Hazard ratios for mosquito mortality at day 7 post blood meal were calculated using Poisson regression analysis with STATA version 12.1 (StataCorp LLC, College Station, TX, USA). Oocyst and sporozoite prevalence (i.e. proportion of infected mosquitoes) was compared by Fishers Exact test. Oocyst intensity (i.e. number of oocysts per infected mosquito) was compared by the Mann–Whitney U test. To determine if P. vivax infection altered mosquito survivorship post-ivermectin ingestion survival data were analysed by the Mantel–Cox method. The Fishers Exact, Mann–Whitney U, and survival analysis data were analysed with Prism 7 (GraphPad Software Inc, San Diego, CA, USA).

Anopheles dirus = conditions: An. dirus
Procedure: as §1, §2, §3

Anopheles campestris = conditions: An. campestris
Procedure: as §1, §2, §3

ivermectin was tested, and the LC5 (Anopheles minimus; 7 days post blood meal) was 6.7 ng/mL, the LC25 (Anopheles minimus; 7 days post blood meal) was 0.0113 µg/mL and the LC50 (Anopheles minimus; 7 days post blood meal) was 0.0163 µg/mL. The “IRR (Incidence Rate Ratio of mortality at day 7, treatment group divided by control group)” value (Anopheles minimus; ivermectin imbibed 1 ng/ml) was 2.7, the “IRR (Incidence Rate Ratio of mortality at day 7, treatment group divided by control group)” value (Anopheles minimus; ivermectin imbibed 2 ng/ml) was 0.5 and the “IRR (Incidence Rate Ratio of mortality at day 7, treatment group divided by control group)” value (Anopheles minimus; ivermectin imbibed 3 ng/ml) was 1.8. The “IRR (Incidence Rate Ratio of mortality at day 7, treatment group divided by control group)” value (Anopheles minimus; ivermectin imbibed 4 ng/ml) was 2.9, the “IRR (Incidence Rate Ratio of mortality at day 7, treatment group divided by control group)” value (Anopheles minimus; ivermectin imbibed 5 ng/ml) was 3.6 and the “IRR (Incidence Rate Ratio of mortality at day 7, treatment group divided by control group)” value (Anopheles minimus; ivermectin imbibed 6 ng/ml) was 1.3. The “IRR (Incidence Rate Ratio of mortality at day 7, treatment group divided by control group)” value (Anopheles minimus; ivermectin imbibed 8 ng/ml) was 2.8, the “IRR (Incidence Rate Ratio of mortality at day 7, treatment group divided by control group)” value (Anopheles minimus; ivermectin imbibed 10 ng/ml) was 3.8 and the “IRR (Incidence Rate Ratio of mortality at day 7, treatment group divided by control group)” value (Anopheles minimus; ivermectin imbibed 12 ng/ml) was 4.6. The “IRR (Incidence Rate Ratio of mortality at day 7, treatment group divided by control group)” value (Anopheles minimus; ivermectin imbibed 15 ng/ml) was 5.8, the “IRR (Incidence Rate Ratio of mortality at day 7, treatment group divided by control group)” value (Anopheles minimus; ivermectin imbibed 18 ng/ml) was 7.0 and the “IRR (Incidence Rate Ratio of mortality at day 7, treatment group divided by control group)” value (Anopheles minimus; ivermectin imbibed 20 ng/ml) was 9.5. For the same substance, the “IRR (Incidence Rate Ratio of mortality at day 7, treatment group divided by control group)” value (Anopheles minimus; ivermectin imbibed 25 ng/ml) was 9.0, the “IRR (Incidence Rate Ratio of mortality at day 7, treatment group divided by control group)” value (Anopheles minimus; ivermectin imbibed 28 ng/ml) was 10.5 and the “IRR (Incidence Rate Ratio of mortality at day 7, treatment group divided by control group)” value (Anopheles minimus; ivermectin imbibed 30 ng/ml) was 11.5. It also gave an LC5 (Anopheles dirus; 7 days post blood meal) of 22.1 ng/mL, an LC25 (Anopheles dirus; 7 days post blood meal) of 0.0381 µg/mL and an LC50 (Anopheles dirus; 7 days post blood meal) of 0.0556 µg/mL. For the same substance, the “IRR (Incidence Rate Ratio of mortality at day 7, treatment group divided by control group)” value (Anopheles dirus; ivermectin imbibed 20 ng/ml) was 2.8, the “IRR (Incidence Rate Ratio of mortality at day 7, treatment group divided by control group)” value (Anopheles dirus; ivermectin imbibed 25 ng/ml) was 8.2 and the “IRR (Incidence Rate Ratio of mortality at day 7, treatment group divided by control group)” value (Anopheles dirus; ivermectin imbibed 30 ng/ml) was 4.7. The “IRR (Incidence Rate Ratio of mortality at day 7, treatment group divided by control group)” value (Anopheles dirus; ivermectin imbibed 35 ng/ml) was 24.4, the “IRR (Incidence Rate Ratio of mortality at day 7, treatment group divided by control group)” value (Anopheles dirus; ivermectin imbibed 40 ng/ml) was 19.1 and the “IRR (Incidence Rate Ratio of mortality at day 7, treatment group divided by control group)” value (Anopheles dirus; ivermectin imbibed 45 ng/ml) was 21.4. For the same substance, the “IRR (Incidence Rate Ratio of mortality at day 7, treatment group divided by control group)” value (Anopheles dirus; ivermectin imbibed 50 ng/ml) was 32.3, the “IRR (Incidence Rate Ratio of mortality at day 7, treatment group divided by control group)” value (Anopheles dirus; ivermectin imbibed 55 ng/ml) was 29.6 and the “IRR (Incidence Rate Ratio of mortality at day 7, treatment group divided by control group)” value (Anopheles dirus; ivermectin imbibed 60 ng/ml) was 36.1. The “IRR (Incidence Rate Ratio of mortality at day 7, treatment group divided by control group)” value (Anopheles dirus; ivermectin imbibed 65 ng/ml) was 44.5, the “IRR (Incidence Rate Ratio of mortality at day 7, treatment group divided by control group)” value (Anopheles dirus; ivermectin imbibed 70 ng/ml) was 42.5 and the “IRR (Incidence Rate Ratio of mortality at day 7, treatment group divided by control group)” value (Anopheles dirus; ivermectin imbibed 80 ng/ml) was 46.8. The “IRR (Incidence Rate Ratio of mortality at day 7, treatment group divided by control group)” value (Anopheles dirus; ivermectin imbibed 85 ng/ml) was 55.7, the “IRR (Incidence Rate Ratio of mortality at day 7, treatment group divided by control group)” value (Anopheles dirus; ivermectin imbibed 95 ng/ml) was 58.1 and the “IRR (Incidence Rate Ratio of mortality at day 7, treatment group divided by control group)” value (Anopheles dirus; ivermectin imbibed 100 ng/ml) was 64.3. The LC5 (Anopheles campestris; 7 days post blood meal) was 11.7 ng/mL, the LC25 (Anopheles campestris; 7 days post blood meal) was 0.0189 µg/mL and the LC50 (Anopheles campestris; 7 days post blood meal) was 0.0264 µg/mL. For the same substance, the “IRR (Incidence Rate Ratio of mortality at day 7, treatment group divided by control group)” value (Anopheles campestris; ivermectin imbibed 3 ng/ml) was 0.8, the “IRR (Incidence Rate Ratio of mortality at day 7, treatment group divided by control group)” value (Anopheles campestris; ivermectin imbibed 4 ng/ml) was 1.7 and the “IRR (Incidence Rate Ratio of mortality at day 7, treatment group divided by control group)” value (Anopheles campestris; ivermectin imbibed 5 ng/ml) was 1.4. For the same substance, the “IRR (Incidence Rate Ratio of mortality at day 7, treatment group divided by control group)” value (Anopheles campestris; ivermectin imbibed 6 ng/ml) was 1.0, the “IRR (Incidence Rate Ratio of mortality at day 7, treatment group divided by control group)” value (Anopheles campestris; ivermectin imbibed 8 ng/ml) was 1.2 and the “IRR (Incidence Rate Ratio of mortality at day 7, treatment group divided by control group)” value (Anopheles campestris; ivermectin imbibed 10 ng/ml) was 1.0.
